Laboratory results as given in patent US9897551B2, “Method for accelerated degradation of thermoplastics” (priority 2013, dated 2018).
Where two headings read alike, the source gives them in different places.

Legend:
[1] = pKa values of end-capping agents; type: physicochemical; conditions: approximated based on the values of similar structures
[2] = values taken from literature references (footnote); cited from earlier work

Row | pKa [1] | Structure (SMILES) | pKa [2]
1 | 10.5 | CC(C)(c1ccccc1)c1ccc(O)cc1 [p-cumylphenol] | –
2 | – | COc1ccc(O)cc1 [p-methoxyphenol] | 10.4
